# Test results reported in US6303603A, “3-oxo-2(H)-1,2,4-triazine derivatives as ligands of 5 HT1A receptors” (Pierre Fabre Medicament, priority 1997, dated 2001).
# Counter-ions that a name gives are not always drawn. Like-named read-outs stand apart in the source and are kept apart here.
# Experiments:
# 5-HT1A [1] = target: T1, 5-HT1A (Rattus norvegicus, UniProt P19327); assay: Binding to the 5-HT1A receptor (displacement of [3H]8-OH-DPAT); set-up: Brains from male Sprague-Dawley 180-200 g rats; tissue Iffa Credo, France (animals); host or cells: rat brain cortex; species or system rat (male Sprague-Dawley), brain cortex; details: for Ki: read-out: pKi 5-HT1A (converted)
# T1 sequence (P19327 1-422): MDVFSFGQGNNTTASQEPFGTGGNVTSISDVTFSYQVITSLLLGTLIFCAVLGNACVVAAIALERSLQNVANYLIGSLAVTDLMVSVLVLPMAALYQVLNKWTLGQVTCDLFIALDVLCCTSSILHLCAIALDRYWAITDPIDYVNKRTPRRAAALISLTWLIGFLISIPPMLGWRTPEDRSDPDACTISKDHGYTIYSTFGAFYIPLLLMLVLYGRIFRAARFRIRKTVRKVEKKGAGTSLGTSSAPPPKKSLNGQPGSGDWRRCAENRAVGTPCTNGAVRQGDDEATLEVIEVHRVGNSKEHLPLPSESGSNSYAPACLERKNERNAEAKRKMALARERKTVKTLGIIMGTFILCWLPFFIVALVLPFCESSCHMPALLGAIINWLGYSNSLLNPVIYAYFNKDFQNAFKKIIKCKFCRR
# Protocol: (§1) Binding to the 5-HT1A, D2 dopaminergic and α1-adrenergic receptors:
# (§2) Brains from male Sprague-Dawley 180-200 g rats [Ico: OFA SD (I.O.P.S. Caw); Iffa Credo, France], maintained at -70° C., were used in all the studies.
# (§3) The affinity of the products for the various receptors was determined by displacement of radioactive ligands under the conditions summarized in Table 1.
# (§4) The reaction is halted by rapid filtration, under vacuum, through Whatman GF/B filters and the tubes are rinsed with 2×5 ml of Tris-HCl 50 mM, pH 7.4, buffer at 25° C. The radioactivity collected on the filter is analyzed by liquid scintillation after addition of 4 ml of liquid scintillant (Emulsifier Safe, Packard). All the experiments are carried out in triplicate.
# (§5) The inhibition constants (Ki) of the products are estimated from the displacement experimentations by using the EBDA (equilibrium binding data analysis) Radlig version 4 nonlinear regression program (Biosoft, Cambridge, UK; McPherson, 1985).
# (§6) The pKi (-log Ki) values are given in the form of the mean ± SEM of at least 3 experimentations (Table 2).
# 5-HT1A [2] = target: T1, 5-HT1A; assay: Serotoninergic (5-HT) syndrome; type: in vivo, male rat (Sprague-Dawley); set-up: carried out with the male rat (Sprague-Dawley); from tissue; host or cells: whole living rat (in vivo); details: po, male rat
# Protocol: The central activity of the compounds of the invention was evaluated by their ability to provoke the 5-HT syndrome, which is characterized by:
# an alternating bending and stretching of the forepaws (reciprocal fore-paw treading: FPT)
# the retraction of the lower lip (lower lip on: LLR)
# a position or the ventral surface of the animal is incobtact with the ground and the hind paws extended (flat body posture: FBP).
# The experiments on the evaluation of the 5-HT syndrome are carried out with the male rat (Sprague-Dawley) according to the technique described by F. C. Colpaert et al. (Drug. Dev. Res, 26, 21-48, 1992) and M. S. Kleven et al. (J.P.E.T., 282, 747-759, 1997).
# [3] = Antidepressant activity: forced swimming test; type: in vivo; details: po, percentage of animals with significant decrease vs control (p<0.05), read-out: ED50 (decrease in the immobility time)
# D2 dopaminergic receptor = target: T2, D2 dopaminergic receptor (Rattus norvegicus, UniProt P61169); assay: Binding to the D2 dopaminergic receptor (displacement of [3H]YM-09151-2); set-up: species or system rat (male Sprague-Dawley), brain striatum; details: read-out: pKi D2 (converted)
# T2 construct: Brains from male Sprague-Dawley 180-200 g rats; tissue Iffa Credo, France (animals); host or cells: rat brain striatum
# Protocol: as §1, §2, §3, §4, §5, §6
# α1-adrenergic receptor = assay: Binding to the α1-adrenergic receptor (displacement of [3H]Prazosin); set-up: species or system rat (male Sprague-Dawley), brain cortex; details: rat cortex, 30 min, 23 °C, mean of at least 3 experimentations
# Protocol: as §1, §2, §3, §4, §5, §6
# Experimental conditions for binding to the receptors
# [^3 H] ligand Incubation binding
# Concen- Tissue Temper- Concen-
# Binding KD tration Concen- Time ature tration
# site (nM) (nM) Type tration (min) (° C.) Product (μM)
# Buffers: (A) Tris HCl 50 mM pH 7.4, pargyline 10 μM, CaCl2 4 mM,
# 0.1% ascorbic acid; (B) Tris HCl 50 mM pH 7.4, NaCl 120 mM, KCl 5 mM; (C)
# [4] = flat body posture (FBP), read-out: 5-HT syndrome ED50 FBP
# [5] = lower lip retraction (LLR), read-out: 5-HT syndrome ED50 LLR
# [6] = reciprocal fore-paw treading (FPT), read-out: 5-HT syndrome ED50 FPT
# T2 sequence (P61169 whole entry): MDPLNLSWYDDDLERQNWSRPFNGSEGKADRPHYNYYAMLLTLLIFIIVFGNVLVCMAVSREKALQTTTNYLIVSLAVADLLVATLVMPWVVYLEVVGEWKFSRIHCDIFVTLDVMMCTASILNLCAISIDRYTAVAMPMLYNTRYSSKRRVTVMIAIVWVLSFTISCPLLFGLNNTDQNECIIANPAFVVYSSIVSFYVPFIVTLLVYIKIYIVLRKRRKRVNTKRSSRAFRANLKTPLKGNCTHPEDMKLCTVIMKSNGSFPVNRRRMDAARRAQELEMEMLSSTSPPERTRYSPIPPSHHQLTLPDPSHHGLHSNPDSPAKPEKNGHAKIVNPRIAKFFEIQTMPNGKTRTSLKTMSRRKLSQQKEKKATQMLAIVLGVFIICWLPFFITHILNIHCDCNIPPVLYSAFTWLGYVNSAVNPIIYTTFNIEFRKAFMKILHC
Molecule,"pKi 5-HT1A (5-HT1A [1]; [3H]8-OH-DPAT, rat cortex, 30 min, 23 °C, mean of at least 3 experimentations)",5-HT syndrome ED50 FBP (5-HT1A [2]; flat body posture (FBP)) [mg/kg],5-HT syndrome ED50 LLR (5-HT1A [2]; lower lip retraction (LLR)) [mg/kg],5-HT syndrome ED50 FPT (5-HT1A [2]; reciprocal fore-paw treading (FPT)) [mg/kg],Ki (5-HT1A [1]) [nM],ED50 [3] [mg/kg],Ki (D2 dopaminergic receptor) [nM],pKi α1 (α1-adrenergic receptor),ED50 (5-HT1A [2]; [4]) [mg/kg],ED50 (5-HT1A [2]; [5]) [mg/kg],ED50 (5-HT1A [2]; [6]) [mg/kg]
"5-[4-[4-(5-Chloro-2-methoxyphenyl)-piperazin-1-yl]butoxy]-2-methyl-2H- [1,2,4]triazin-3-one fumarate [Compound 17]",9.89,0.31,0.08,0.31,,,,,,,
"Cn1ncc(OCC[C@H]2CC[C@@H]3CN(c4ncccn4)CCN3C2)nc1=O (relative stereo) [Compound 24, trans-2-Methyl-5-[2-(2-pyrimidin-2-yl-octahydropyrido[1,2-a]pyrazin-7-yl)ethoxy]-2H-[1,2,4]triazin-3-one]",,,,,0.525,0.04,2880,6.35,0.08,< 0.04,0.08
"Cn1ncc(OCC[C@H]2CC[C@@H]3CN(c4ncccn4)CCN3C2)nc1=O (single isomer, unassigned) [Compound 26]",,,,,0.245,0.04,,,< 0.04,< 0.04,0.04
"O=C1CC2(CCCC2)CC(=O)N1CCCCN1CCN(c2ncccn2)CC1 [Buspirone, reference compound]",,,,,,> 160,,6.19,,,> 40
"Cn1ncc(OCCCCN2CCN(c3ncccn3)CC2)nc1=O [Compound 1, 2-Methyl-5-[4-(4-pyrimidin-2-yl-piperazin-1-yl)butoxy]-2H-[1,2,4]triazin-3-one]",,,,,0.676,,1580,6.25,0.08,0.02,0.08
"Cc1ccnc(N2CCN(CCCCOc3cnn(C)c(=O)n3)CC2)n1.O=C(O)/C=C/C(=O)O [Compound 2, 2-Methyl-5-[4-[4-(4-methylpyrimidin-2-yl)piperazin-1-yl]butoxy]-2H-[1,2,4]triazin-3-one fumarate]",,,,,0.269,0.04,1740,6.11,0.08,0.02,0.08
"Cc1cc(C)nc(N2CCN(CCCCOc3cnn(C)c(=O)n3)CC2)n1.O=C(O)/C=C/C(=O)O [Compound 3, 5-[4-[4-(4,6-Dimethylpyrimidin-2-yl)piperazin-1-yl]butoxy]-2-methyl-2H-[1,2,4]triazin-3-one fumarate]",,,,,0.275,,1120,6.01,0.08,0.08,0.08
"COc1ccnc(N2CCN(CCCCOc3cnn(C)c(=O)n3)CC2)n1 [Compound 4, 5-[4-[4-(4-Methoxypyrimnidin-2-yl)piperazin-1-yl]butoxy]-2-methyl-2H-[1,2,4]triazin-3-one fumarate]",,,,,0.138,,2240,6.74,0.08,< 0.04,0.08
"Cn1ncc(OCCCCN2CCN(c3nccc(Cl)n3)CC2)nc1=O [Compound 6, 5-[4-[4-(4-Chloropyrimidin-2-yl)piperazin-1-yl]butoxy]-2-methyl-2H-[1,2,4]triazin-3-one]",,,,,0.209,0.63,1700,6.25,0.08,0.08,0.08
"Cn1ncc(OCCCCN2CCN(c3ncc(F)cn3)CC2)nc1=O [Compound 7, 5-[4-[4-(5-Fluoropyrimidin-2-yl)piperazin-1-yl]butoxy]-2-methyl-2H-[1,2,4]triazin-3-one]",,,,,0.912,,,,0.31,0.08,0.31
"COc1cccnc1N1CCN(CCCCOc2cnn(C)c(=O)n2)CC1 [Compound 15, 5-[4-[4-(3-Methoxypyridin-2-yl)piperazin-1-yl]butoxy]-2-methyl-2H-[1,2,4]triazin-3-one fumarate]",,,,,0.263,,,,,,
"Cn1ncc(OCCCCN2CCN(c3cccc(Cl)c3)CC2)nc1=O [Compound 16, 5-[4-[4-(3-Chlorophenyl)piperazin-1-yl]Butoxy]-2-methyl-2H-[1,2,4]Triazin-3-one fumarate]",,,,,0.0759,,,,,,
"COc1ccc(Cl)cc1N1CCN(CCCCOc2cnn(C)c(=O)n2)CC1 [Compound 19, 5-[4-[4-(5-Chloro-2-methoxyphenyl)-piperazin-1-yl]butoxyl-2-methyl-2H-[1,2,4]triazin-3-one fumarate]",,,,,0.309,,15.1,8.21,,,
"Cn1ncc(OCCCCNCC2COc3ccccc3O2)nc1=O (stereo not shown) [Compound 20, 5-[4-((2,3-Dihydrobenzo[1,4]dioxin-2-ylmethyl)amino]butoxyl-2-methyl-2H-[1,2,4]triazin-3-one fumarate]",,,,,0.107,,66.1,7.65,0.08,< 0.04,0.31
"Cn1ncc(OCCCCNC[C@@H]2COc3ccccc3O2)nc1=O [Compound 21, (R)-5-[4-[(2,3-Dihydrobenzo[1,4]dioxin-2-ylmethyl)amino]butoxy)-2-methyl-2H-[1,2,4]triazin-3-one fumarate]",,,,,0.331,,,,,,
"Cn1ncc(OCCCCNC[C@H]2COc3ccccc3O2)nc1=O [Compound 22, (S)-5-[4-[(2,3-Dihydrobenzo[1,4]dioxin-2-ylmethyl)amino]butoxy]-2-methyl-2H-[1,2,4]triazin-3-one fumarate]",,,,,0.0339,,,,,,
"O=C(NCCN1CCN(c2cccc3c2OC[C@H](CO)O3)CC1)c1ccc(F)cc1 [Flesinoxan, reference compound]",,,,,,1.25,,6.50,,,
